Experimental data published in patent publication US20240000872A1, “NOVEL BACTERIOPHAGE THAT LYSES ACINETOBACTER GENUS BACTERIA HAVING RESISTANCE TO ANTIBIOTICS” (priority 2020, published 2024).

System: Acinetobacter baumannii strains
Assay: Antibiotic susceptibility test (CLSI disk diffusion test method, read per CLSI 2016); as to antibiotic susceptibility S/I/R: key: ‘S’ means susceptible; ‘I’ means intermediate; ‘R’ means resistant; as to antibiotic susceptibility class: key: ‘S’ means susceptible; ‘I’ means intermediate; ‘R’ means resistant; as to susceptibility category (S/I/R): key: ‘S’ means susceptible; ‘I’ means intermediate; ‘R’ means resistant
Type: cell-based
Design: antibiotic susceptibility test value / susceptibility test value (number given before S/I/R) / antibiotic susceptibility value: unit not given here

cortrimoxazole
antibiotic susceptibility class (host strain YMC14/01/C29): R | antibiotic susceptibility test value (host strain YMC14/01/C29): 320 | antibiotic susceptibility class (host strain YMC14/01/IP122): S | antibiotic susceptibility test value (host strain YMC14/01/IP122): 20 | antibiotic susceptibility class (host strain YMC14/01/L8): R | antibiotic susceptibility test value (host strain YMC14/01/L8): 320 | antibiotic susceptibility class (host strain YMC14/01/P31): R | antibiotic susceptibility test value (host strain YMC14/01/P31): 160 | antibiotic susceptibility class (host strain YMC14/01/P117): R | antibiotic susceptibility test value (host strain YMC14/01/P117): 160 | antibiotic susceptibility class (host strain YMC14/01/P224): R | antibiotic susceptibility test value (host strain YMC14/01/P224): 320 | antibiotic susceptibility class (host strain YMC14/01/P727): R | antibiotic susceptibility test value (host strain YMC14/01/P727): 320 | antibiotic susceptibility class (host strain YMC14/01/P728): R | antibiotic susceptibility test value (host strain YMC14/01/P728): 160 | antibiotic susceptibility class (host strain YMC14/01/R130): R | antibiotic susceptibility test value (host strain YMC14/01/R130): 320 | antibiotic susceptibility class (host strain YMC14/01/R160): R | antibiotic susceptibility test value (host strain YMC14/01/R160): 320 | antibiotic susceptibility class (host strain YMC14/01/R198): R | antibiotic susceptibility test value (host strain YMC14/01/R198): 320 | antibiotic susceptibility class (host strain YMC14/01/R257): R | antibiotic susceptibility test value (host strain YMC14/01/R257): 320 | antibiotic susceptibility class (host strain YMC14/01/R270): R | antibiotic susceptibility test value (host strain YMC14/01/R270): 320 | antibiotic susceptibility class (host strain YMC14/01/R324): R | antibiotic susceptibility test value (host strain YMC14/01/R324): 160 | antibiotic susceptibility class (host strain YMC14/01/R443): R | antibiotic susceptibility test value (host strain YMC14/01/R443): 320 | antibiotic susceptibility class (host strain YMC14/01/R451): R | antibiotic susceptibility test value (host strain YMC14/01/R451): 320 | antibiotic susceptibility class (host strain YMC14/01/R560): R | antibiotic susceptibility test value (host strain YMC14/01/R560): 160 | antibiotic susceptibility class (host strain YMC14/01/R617): R | antibiotic susceptibility test value (host strain YMC14/01/R617): 320 | antibiotic susceptibility class (host strain YMC14/01/R671): R | antibiotic susceptibility test value (host strain YMC14/01/R671): 320 | antibiotic susceptibility class (host strain YMC14/01/R732): R | antibiotic susceptibility test value (host strain YMC14/01/R732): 320 | antibiotic susceptibility class (host strain YMC14/01/R767): R | antibiotic susceptibility test value (host strain YMC14/01/R767): 160 | antibiotic susceptibility class (host strain YMC14/01/R904): S | antibiotic susceptibility test value (host strain YMC14/01/R904): 20 | antibiotic susceptibility class (host strain YMC14/01/R905): R | antibiotic susceptibility test value (host strain YMC14/01/R905): 320 | antibiotic susceptibility class (host strain YMC14/01/R921): S | antibiotic susceptibility test value (host strain YMC14/01/R921): 40 | antibiotic susceptibility class (host strain YMC14/01/R941): R | antibiotic susceptibility test value (host strain YMC14/01/R941): 320 | antibiotic susceptibility class (host strain YMC14/01/R958): R | antibiotic susceptibility test value (host strain YMC14/01/R958): 320 | antibiotic susceptibility class (host strain YMC14/01/R1006): R | antibiotic susceptibility test value (host strain YMC14/01/R1006): 320 | antibiotic susceptibility class (host strain YMC14/01/R1199): R | antibiotic susceptibility test value (host strain YMC14/01/R1199): 160 | antibiotic susceptibility class (host strain YMC14/01/R1659): R | antibiotic susceptibility test value (host strain YMC14/01/R1659): 320 | antibiotic susceptibility class (host strain YMC14/01/R1722): R | antibiotic susceptibility test value (host strain YMC14/01/R1722): 320 | antibiotic susceptibility class (host strain YMC14/01/R1752): S | antibiotic susceptibility test value (host strain YMC14/01/R1752): 20 | antibiotic susceptibility class (host strain YMC14/01/R2429): R | antibiotic susceptibility test value (host strain YMC14/01/R2429): 160 | antibiotic susceptibility class (host strain YMC14/01/R2572): R | antibiotic susceptibility test value (host strain YMC14/01/R2572): 320 | antibiotic susceptibility class (host strain YMC14/01/R2855): R | antibiotic susceptibility test value (host strain YMC14/01/R2855): 320 | antibiotic susceptibility class (host strain YMC14/01/R2945): R | antibiotic susceptibility test value (host strain YMC14/01/R2945): 160 | antibiotic susceptibility class (host strain YMC14/01/R3007): S | antibiotic susceptibility test value (host strain YMC14/01/R3007): 20 | antibiotic susceptibility class (host strain YMC14/01/R3129): S | antibiotic susceptibility test value (host strain YMC14/01/R3129): 20 | antibiotic susceptibility class (host strain YMC14/01/R3317): R | antibiotic susceptibility test value (host strain YMC14/01/R3317): 160 | antibiotic susceptibility class (host strain YMC14/01/R3474): R | antibiotic susceptibility test value (host strain YMC14/01/R3474): 160 | antibiotic susceptibility class (host strain YMC14/01/R3574): R | antibiotic susceptibility test value (host strain YMC14/01/R3574): 160 | antibiotic susceptibility class (host strain YMC14/01/U313): R | antibiotic susceptibility test value (host strain YMC14/01/U313): 320 | antibiotic susceptibility class (host strain YMC14/01/U318): R | antibiotic susceptibility test value (host strain YMC14/01/U318): 320 | antibiotic susceptibility class (host strain YMC14/02/L18): R | antibiotic susceptibility test value (host strain YMC14/02/L18): 160 | antibiotic susceptibility class (host strain YMC14/02/P47): R | antibiotic susceptibility test value (host strain YMC14/02/P47): 320 | antibiotic susceptibility class (host strain YMC14/02/R1860): R | antibiotic susceptibility test value (host strain YMC14/02/R1860): 320 | antibiotic susceptibility class (host strain YMC14/02/R2417): R | antibiotic susceptibility test value (host strain YMC14/02/R2417): 320 | antibiotic susceptibility class (host strain YMC14/02/R2599): S | antibiotic susceptibility test value (host strain YMC14/02/R2599): 20 | antibiotic susceptibility class (host strain YMC14/02/R2668): R | antibiotic susceptibility test value (host strain YMC14/02/R2668): 320 | antibiotic susceptibility class (host strain YMC14/02/R2758): R | antibiotic susceptibility test value (host strain YMC14/02/R2758): 320 | antibiotic susceptibility class (host strain YMC14/02/R2781): R | antibiotic susceptibility test value (host strain YMC14/02/R2781): 160 | antibiotic susceptibility class (host strain YMC14/02/R3106): R | antibiotic susceptibility test value (host strain YMC14/02/R3106): 320 | antibiotic susceptibility class (host strain YMC14/02/R3419): R | antibiotic susceptibility test value (host strain YMC14/02/R3419): 320 | antibiotic susceptibility class (host strain YMC14/02/U1607): S | antibiotic susceptibility test value (host strain YMC14/02/U1607): 20 | antibiotic susceptibility class (host strain YMC14/03/L9): R | antibiotic susceptibility test value (host strain YMC14/03/L9): 160 | antibiotic susceptibility class (host strain YMC14/03/P471): S | antibiotic susceptibility test value (host strain YMC14/03/P471): 20 | antibiotic susceptibility class (host strain YMC14/03/R122): S | antibiotic susceptibility test value (host strain YMC14/03/R122): 20 | antibiotic susceptibility class (host strain YMC14/03/R217): R | antibiotic susceptibility test value (host strain YMC14/03/R217): 160 | antibiotic susceptibility class (host strain YMC14/03/R380): R | antibiotic susceptibility test value (host strain YMC14/03/R380): 320 | antibiotic susceptibility class (host strain YMC14/03/R618): S | antibiotic susceptibility test value (host strain YMC14/03/R618): 20 | antibiotic susceptibility class (host strain YMC14/03/R2144): R | antibiotic susceptibility test value (host strain YMC14/03/R2144): 160 | antibiotic susceptibility class (host strain YMC14/03/U4616): R | antibiotic susceptibility test value (host strain YMC14/03/U4616): 160 | antibiotic susceptibility class (host strain YMC14/04/R1078): S | antibiotic susceptibility test value (host strain YMC14/04/R1078): 20 | antibiotic susceptibility class (host strain YMC14/04/R1080): S | antibiotic susceptibility test value (host strain YMC14/04/R1080): 20 | antibiotic susceptibility S/I/R (host strain YMC14/06/R2359): R | antibiotic susceptibility value (host strain YMC14/06/R2359): 320 | susceptibility category (S/I/R) (host strain YMC14/06/R2359): R | susceptibility test value (number given before S/I/R) (host strain YMC14/06/R2359): 320 | antibiotic susceptibility S/I/R (host strain YMC14/08/R1169): R | antibiotic susceptibility value (host strain YMC14/08/R1169): 320 | susceptibility category (S/I/R) (host strain YMC14/08/R1169): R | susceptibility test value (number given before S/I/R) (host strain YMC14/08/R1169): 320 | antibiotic susceptibility S/I/R (host strain YMC14/08/T90): R | antibiotic susceptibility value (host strain YMC14/08/T90): 320 | susceptibility category (S/I/R) (host strain YMC14/08/T90): R | susceptibility test value (number given before S/I/R) (host strain YMC14/08/T90): 320 | antibiotic susceptibility S/I/R (host strain YMC15/02/R436): R | antibiotic susceptibility value (host strain YMC15/02/R436): 320 | susceptibility category (S/I/R) (host strain YMC15/02/R436): R | susceptibility test value (number given before S/I/R) (host strain YMC15/02/R436): 320 | antibiotic susceptibility S/I/R (host strain YMC15/02/T28): R | antibiotic susceptibility value (host strain YMC15/02/T28): 320 | susceptibility category (S/I/R) (host strain YMC15/02/T28): R | susceptibility test value (number given before S/I/R) (host strain YMC15/02/T28): 320 | antibiotic susceptibility S/I/R (host strain YMC15/03/R1604): R | antibiotic susceptibility value (host strain YMC15/03/R1604): 320 | susceptibility category (S/I/R) (host strain YMC15/03/R1604): R | susceptibility test value (number given before S/I/R) (host strain YMC15/03/R1604): 320 | antibiotic susceptibility S/I/R (host strain YMC15/09/R1869): R | antibiotic susceptibility value (host strain YMC15/09/R1869): 320 | susceptibility category (S/I/R) (host strain YMC15/09/R1869): R | susceptibility test value (number given before S/I/R) (host strain YMC15/09/R1869): 320 | antibiotic susceptibility S/I/R (host strain YMC16/01/P11): R | antibiotic susceptibility value (host strain YMC16/01/P11): 320 | susceptibility category (S/I/R) (host strain YMC16/01/P11): R | susceptibility test value (number given before S/I/R) (host strain YMC16/01/P11): 320 | antibiotic susceptibility S/I/R (host strain YMC16/01/R123): R | antibiotic susceptibility value (host strain YMC16/01/R123): 160 | susceptibility category (S/I/R) (host strain YMC16/01/R123): R | susceptibility test value (number given before S/I/R) (host strain YMC16/01/R123): 160 | antibiotic susceptibility S/I/R (host strain YMC16/01/R198): R | antibiotic susceptibility value (host strain YMC16/01/R198): 160 | susceptibility category (S/I/R) (host strain YMC16/01/R198): R | susceptibility test value (number given before S/I/R) (host strain YMC16/01/R198): 160 | antibiotic susceptibility S/I/R (host strain YMC16/01/R353): R
